The values below come from PubChem BioAssay AID1259411 (Chemical Carcinogenesis Research Information System (CCRIS), 2018).

The source made the active and inactive calls. How the calls were made is not given here.

The series deals with rodent carcinogenicity bioassays, tumor incidence. The experiment in a line: CCRIS carcinogenicity studies. The settings on record: Dose: 0, Dose: 0. The gist of the method:
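NCI-built, expert-reviewed records of carcinogenicity and related test outcomes (mutagenicity, tumor promotion/inhibition) compiled from published and report sources, historical span 1985-2011, not updated.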

For the compound `CC[C@H](OC(C)=O)C(C[C@H](C)N(C)C)(c1ccccc1)c1ccccc1`, the carcinogen call is “inactive; negative” (Species: MOUSE, Strain/Sex: B6C3F1/FEMALE, Route: ORAL, 7.6, 30.1 MG/KG IN DIET FOR DURATION OF STUDY (STUDY DURATION: 24 MO), 7.6, 30.1 MG/KG IN DIET FOR DURATION OF STUDY (STUDY DURATION: 24 MO)); “inactive; negative” (Species: MOUSE, Strain/Sex: B6C3F1/MALE, Route: ORAL, 7.6, 30.1 MG/KG IN DIET FOR DURATION OF STUDY (STUDY DURATION: 24 MO), 7.6, 30.1 MG/KG IN DIET FOR DURATION OF STUDY (STUDY DURATION: 24 MO)); “active; positive” (Species: RAT, Strain/Sex: F344/FEMALE, Route: ORAL, 5.7, 16.6 MG/KG IN DIET FOR DURATION OF STUDY (STUDY DURATION: 24 MO), 5.7, 16.6 MG/KG IN DIET FOR DURATION OF STUDY (STUDY DURATION: 24 MO), Tumor Site: Type of Lesion: LIVER: ADENOMA OR CARCINOMA, UTERUS: ENDOMETRIAL STROMAL POLYP); “active; positive” (Species: RAT, Strain/Sex: F344/MALE, Route: ORAL, 3.1, 9.7 MG/KG IN DIET FOR DURATION OF STUDY (STUDY DURATION: 24 MO), 3.1, 9.7 MG/KG IN DIET FOR DURATION OF STUDY (STUDY DURATION: 24 MO), Tumor Site: Type of Lesion: LIVER: ADENOMA OR CARCINOMA).
Consider `c1ccc2nc3c(ccc4ccccc43)cc2c1`, for which the carcinogen call reads like this: (Species: MOUSE, Strain/Sex: SWISS/FEMALE, Route: INTRAPERITONEAL, 1.05 UMOL GIVEN AS 150 NMOL IN 5 µL DMSO WITHIN 24 HR OF BIRTH, 300 NMOL IN 10 µL DMSO ON D 8 OF LIFE, AND 600 NMOL I, Tumor Site: Type of Lesion: LUNG: ADENOMA) “active; positive”; (Species: MOUSE, Strain/Sex: SWISS/MALE, Route: INTRAPERITONEAL, 1.05 UMOL GIVEN AS 150 NMOL IN 5 µL DMSO WITHIN 24 HR OF BIRTH, 300 NMOL IN 10 µL DMSO ON D 8 OF LIFE, AND 600 NMOL I, Tumor Site: Type of Lesion: LUNG: ADENOMA, LIVER: NEOPLASTIC NODULE) “active; positive”; (Species: RAT, Strain/Sex: OSBORNE-MENDEL/FEMALE, Route: LUNG IMPLANT, 0.1, 0.3, 1.0 MG IN BEESWAX/TRICAPRYLIN (STUDY DURATION: LIFETIME), 0.1, 0.3, 1.0 MG IN BEESWAX/TRICAPRYLIN (STUDY DURATION: LIFETIME)) “inactive; negative”.
In the case of `CC(C)[C@H](C(=O)O[C@H](C#N)c1cccc(Oc2ccccc2)c1)c1ccc(Cl)cc1`, the carcinogen call is “inactive; negative. a 350 ppm group was terminated at study day 58 due to self-trauma and” (Species: Mouse, Strain/Sex: Crl:CD-17BR/Female (80/Group), Route: Oral, 35, 150 ppm in diet for 18 mo, study duration 18 mo, 35, 150 ppm in diet for 18 mo, study duration 18 mo) and “inactive; negative. a 350 ppm group was terminated at study day 58 due to self-trauma and” (Species: Mouse, Strain/Sex: Crl:CD-17BR/Male (80/Group), Route: Oral, 35, 150 ppm in diet for 18 mo, study duration 18 mo, 35, 150 ppm in diet for 18 mo, study duration 18 mo).
On to `O=[N+]([O-])c1ccc(O)cc1`, for which the carcinogen call is “inactive; negative” (Species: MOUSE, Strain/Sex: SWISS/FEMALE, Route: DERMAL, 40, 80, 160 MG/KG IN ACETONE 3 D/WK FOR 78 WK (STUDY DURATION: 18 MO), 40, 80, 160 MG/KG IN ACETONE 3 D/WK FOR 78 WK (STUDY DURATION: 18 MO)) and “inactive; negative” (Species: MOUSE, Strain/Sex: SWISS/MALE, Route: DERMAL, 40, 80, 160 MG/KG IN ACETONE 3 D/WK FOR 78 WK (STUDY DURATION: 18 MO), 40, 80, 160 MG/KG IN ACETONE 3 D/WK FOR 78 WK (STUDY DURATION: 18 MO)).
In the case of `c1ccc(Nc2ccc3ccccc3c2)cc1`, the carcinogen call by setting is: (Species: MOUSE, Strain/Sex: B6C3F1/FEMALE, Route: ORAL, 2500, 5000 PPM IN DIET FOR 103 WK (STUDY DURATION: 104 WK), 2500, 5000 PPM IN DIET FOR 103 WK (STUDY DURATION: 104 WK), Tumor Site: Type of Lesion: KIDNEY: RENAL TUBULAR CELL ADENOMA, RENAL TUBULAR CELL ADENOCARCINOMA) “equivocal”; (Species: MOUSE, Strain/Sex: B6C3F1/MALE, Route: ORAL, 2500, 5000 PPM IN DIET FOR 103 WK (STUDY DURATION: 104 WK), 2500, 5000 PPM IN DIET FOR 103 WK (STUDY DURATION: 104 WK)) “inactive; negative”; (Species: RAT, Strain/Sex: F344/FEMALE, Route: ORAL, 2500, 5000 PPM IN DIET FOR 103 WK (STUDY DURATION: 104 WK), 2500, 5000 PPM IN DIET FOR 103 WK (STUDY DURATION: 104 WK)) “inactive; negative”; (Species: RAT, Strain/Sex: F344/MALE, Route: ORAL, 2500, 5000 PPM IN DIET FOR 103 WK (STUDY DURATION: 104 WK), 2500, 5000 PPM IN DIET FOR 103 WK (STUDY DURATION: 104 WK)) “inactive; negative”; (Species: RAT, Strain/Sex: SPRAGUE-DAWLEY/FEMALE, Route: GAVAGE, 600 MG/KG BW 2/WK FOR DURATION OF STUDY (STUDY DURATION: LIFETIME)) “inactive; negative”; (Species: RAT, Strain/Sex: SPRAGUE-DAWLEY/MALE, Route: GAVAGE, 600 MG/KG BW 2/WK FOR DURATION OF STUDY (STUDY DURATION: LIFETIME)) “inactive; negative”.
With `Cc1cccc(C)c1NC1=NCCCS1`, where the note is “Species: RAT, Strain/Sex: F344/MALE, Route: ORAL, 1,000 PPM IN FEED FOR 52 WK (STUDY DURATION: 52 WK), Tumor Site: Type of Lesion: THYROID: ADENOMA”, the carcinogen call was “active; positive”.
With `CO/N=C(/C(=O)OC)c1ccccc1COc1ccccc1C`, the carcinogen call (Species: Mouse, Strain/Sex: Strain not specified by Department of Pesticide Regulation /Female (50/Group), Route: Oral, 81, 400, 1662 mg/kg/day of 93.7-96.6% kresoxim-methyl in diet for 18 mo, study duration 18 mo, 81, 400, 1662 mg/kg/day of 93.7-96.6% kresoxim-methyl in diet for 18 mo, study duration 18 mo) is “inactive; negative”; the carcinogen call (Species: Mouse, Strain/Sex: Strain not specified by Department of Pesticide Regulation /Male (50/Group), Route: Oral, 60, 304, 1305 mg/kg/day of 93.7-96.6% kresoxim-methyl in diet for 18 mo, study duration 18 mo, 60, 304, 1305 mg/kg/day of 93.7-96.6% kresoxim-methyl in diet for 18 mo, study duration 18 mo) was “inactive; negative”; the carcinogen call (Species: Rat, Strain/Sex: Wistar/Female (20/Group), Route: Oral, 12, 48, 503, 985 mg/kg/day of 93.7-96.6% kresoxim-methyl in diet for 24 mo, study duration 24 mo, 12, 48, 503, 985 mg/kg/day of 93.7-96.6% kresoxim-methyl in diet for 24 mo, study duration 24 mo, Tumor Site: Type of Lesion: Liver: hepatocellular carcinoma (1/20, 0/20, 2/20, 6/20, 6/20)) was “active; positive”; the carcinogen call (Species: Rat, Strain/Sex: Wistar/Female (50/Group), Route: Oral, 12, 47, 497, 1046 mg/kg/day of 93.7-96.6% kresoxim-methyl in diet for 24 mo, study duration 24 mo, 12, 47, 497, 1046 mg/kg/day of 93.7-96.6% kresoxim-methyl in diet for 24 mo, study duration 24 mo, Tumor Site: Type of Lesion: Liver: hepatocellular carcinoma (1/50, 1/50, 2/50, 13/50, 16/50)) is “active; positive”; the carcinogen call (Species: Rat, Strain/Sex: Wistar/Male (20/Group), Route: Oral, 9, 36, 370, 746 mg/kg/day of 93.7-96.6% kresoxim-methyl in diet for 24 mo, study duration 24 mo, 9, 36, 370, 746 mg/kg/day of 93.7-96.6% kresoxim-methyl in diet for 24 mo, study duration 24 mo, Tumor Site: Type of Lesion: Liver: hepatocellular carcinoma (0/20, 1/20, 1/20, 3/20, 8/20)) is “active; positive”; the carcinogen call (Species: Rat, Strain/Sex: Wistar/Male (50/Group), Route: Oral, 9, 36, 375, 770 mg/kg/day of 93.7-96.6% kresoxim-methyl in diet for 24 mo, study duration 24 mo, 9, 36, 375, 770 mg/kg/day of 93.7-96.6% kresoxim-methyl in diet for 24 mo, study duration 24 mo, Tumor Site: Type of Lesion: Liver: hepatocellular carcinoma (7/50, 5/50, 2/50, 18/50, 11/50). Spleen: hemangiosarcoma (0/50, 0/50, 2/50, 2/50, 3/50)) is “active; positive”.
